The record followed here is patent US7772271B2 (priority 2004, dated 2010).

One may read the melting point as the temperature of the solid-liquid transition. Molecule `N#Cc1c(-c2ccc(NS(=O)(=O)C3CC3)cc2)n(C2CCC2)c2cc(C(=O)N3CCSCC3)ccc12` [Compound 2826] gave a melting point of 205 to 207 °C.

`CC(C)OC(=O)Nc1ccc(-c2c(C#N)c3ccc(OCCC4COC(C)(C)O4)cc3n2C2CCC2)cc1` (stereo not shown) [compound 1428, (4-{3-cyano-1-cyclobutyl-6-[2-(2,2-dimethyl-[1,3]dioxolan-4-yl)-ethoxy]-1H-indol-2-yl}-phenyl)-carbamic acid isopropyl ester] came in with a melting point of 141 to 145 °C.

Regarding `CCN(CC)C(=O)c1ccc(-c2c(C#N)c3ccc(OCCOC)cc3n2C2CCC2)cc1` [Compound 2752], the melting point was 136 to 138 °C.

Consider `C[C@@H](OC(=O)Nc1ccc(-c2c(C#N)c3ccc(Oc4ncccc4F)cc3n2C2CC2)cc1)C1CC1` [Compound 3007], for which the melting point was 154 to 156 °C.

Regarding `CCCS(=O)(=O)Nc1ccc(-c2c(C#N)c3ccc(Oc4nccnc4Cl)cc3n2C2CC2)cc1` [Compound 2937], the melting point lay within 183 to 184 °C.

`CC(C)NC(=O)Nc1ccc(-c2c(C#N)c3ccc(OCCS(C)(=O)=O)cc3n2C2CCC2)cc1` [Compound 2873] had a melting point of 170 to 180 °C.

`CCCS(=O)(=O)Nc1ccc(-c2c(C#N)c3ccc(-c4cnccc4OC)cc3n2C2CCC2)cc1` [Compound 3202] had a melting point of 240 to 242 °C.

With `N#Cc1c(-c2ccc(NC(=O)OC3CCS(=O)(=O)CC3)cc2)n(C2CC2)c2cc(Oc3ncccn3)ccc12` [Compound 3269], the melting point lay in the range of 240 to 246 °C.

With `Cc1cc(-c2c(C#N)c3ccc(Oc4nccnc4C#N)cc3n2C2CCC2)ccc1NS(=O)(=O)CC(C)C` [Compound 3289], the melting point was in the range of 177 to 178 °C.

Turning to `COCCOc1ccc2c(C#N)c(-c3ccc(NC(=O)OC(C)C)cc3)n(C3CCC3)c2c1` [Compound 1399], the melting point was in the range of 125 to 126 °C.

With `CC(C)OC(=O)Nc1ccc(-c2c(C#N)c3ccc(OC4CCS(=O)(=O)CC4)cc3n2C2CCCC2)cc1` [Compound 3246], the melting point was in the range of 223 to 227 °C.

Consider `COCCOc1ccc2c(C#N)c(-c3ccc(NC(=O)OCc4ccccc4)cc3)n(C3CCC3)c2c1` [Compound 1402], for which the melting point is 144 to 145 °C.

`CC(C)OC(=O)Nc1ccc(-c2c(C#N)c3ccc(OCC(O)Cn4cncn4)cc3n2C2CCC2)cc1` (stereo not shown) [compound 1420, {4-[3-Cyano-1-cyclobutyl-6-(2-hydroxy-3-[1,2,4]triazol-1-yl-propoxy)-1H-indol-2-yl]-phenyl}-carbamic acid isopropyl ester] yielded a melting point of 209 to 215 °C.

`N#Cc1c(-c2ccc(OC(=O)NC3CCCCC3)cc2)n(CC2CC2)c2cc(OC3CCOCC3)ccc12` [Compound 2785] had a melting point of 158 to 160 °C.

Regarding `N#Cc1c(-c2ccc(NS(=O)(=O)NCC3CC3)cc2)n(C2CCC2)c2cc(OC3CCOCC3)ccc12` [Compound 2837], the melting point fell in the range of 210 to 212 °C.

`CC(C)(C)OC(=O)NS(=O)(=O)Nc1ccc(-c2c(C#N)c3ccc(N4CCOCC4)cc3n2C2CC2)cc1` [Compound 3175] showed a melting point of 171 to 175 °C.

In turn, `C[C@@H](OC(=O)Nc1ccc(-c2c(C#N)c3ccc(-c4cccc(N5CCCC5)n4)cc3n2C2CCC2)cc1)C1CC1` [Compound 3258] yielded a melting point of 250 to 252 °C.

For the molecule `CC(OC(=O)Nc1ccc(-c2c(C#N)c3ccc(OCCS(C)(=O)=O)cc3n2C2CCC2)cc1)C1CC1` (stereo not shown) [compound 2695, {4-[3-Cyano-1-cyclobutyl-6-(2-methanesulfonyl-ethoxy)-1H-indol-2-yl]-phenyl}-carbamic acid 1-cyclopropyl-ethyl ester], the melting point was 135 to 140 °C.

In turn, `N#Cc1nccnc1Oc1ccc2c(C#N)c(-c3ccc(NS(=O)(=O)CC4CCC4)cc3)n(CC3CC3)c2c1` [Compound 3238] came in with a melting point of 205 to 208 °C.

Molecule `CC(OC(=O)Nc1ccc(-c2c(C#N)c3ccc(OC4CCOC4)cc3n2C2CCC2)cc1)C1CC1` (stereo not shown) [Compound 1453] had a melting point of 183 to 184 °C.

`N#Cc1c(-c2cnc(NC3CCC3)nc2)n(C2CCC2)c2cc(Oc3ncccn3)ccc12` [Compound 3329] came in with a melting point of 237 to 238 °C.

As for `CCn1c(-c2ccc(NC(=O)C3CC3)cc2)c(C#N)c2ccc(OCCN3CCN(CCOC)CC3)cc21` [Compound 1414], the melting point lay within 163.9 to 168.8 °C.

In turn, `CC(C)OC(=O)Nc1ccc(-c2c(C#N)c3ccc(N4CCOCC4)cc3n2C2CC2)cc1` [Compound 2856] came in with a melting point of 220 to 227 °C.

On to `CCOc1ccc2c(C#N)c(-c3ccc(S(=O)(=O)N4CCC(O)C4)cc3)n(C3CCC3)c2c1` (stereo not shown) [Compound 3086], for which the melting point is 194 to 196 °C.

Take `CC(C)CS(=O)(=O)Nc1ccc(-c2c(C#N)c3ccc(-n4ccccc4=O)cc3n2C2CCC2)cc1` [Compound 3015]: the melting point was 270 °C (dec.).

`CCC(CC)NS(=O)(=O)Nc1ccc(-c2c(C#N)c3ccc(OC4CCOCC4)cc3n2C2CCC2)cc1` [Compound 2836] registered a melting point of 193 to 195 °C.

On to `CCOc1ccc2c(c1)c(C#N)c(-c1ccc(N(S(=O)(=O)CC)S(=O)(=O)CC)cc1)n2CC1CC1` [Compound 3078], for which the melting point fell in the range of 180 to 182 °C.

As for `CCOc1ccc2c(C#N)c(-c3ccc(NC(=O)OC4CCN(C(C)=O)CC4)cc3)n(C3CCC3)c2c1` [Compound 3072], the melting point was in the range of 211 to 215 °C.

With `CC(OC(=O)Nc1ccc(-c2c(C#N)c3ccc(OCCCCn4cncn4)cc3n2C2CCC2)cc1)C(F)(F)F` (stereo not shown) [Compound 2643], the melting point lay within 168 to 169 °C.

With `N#Cc1c(-c2ccc(Nc3nc(C(F)(F)F)cs3)cc2)n(C2CCC2)c2cc(Oc3ncccn3)ccc12` [Compound 3189], the melting point lay within 241 to 245 °C.

`C[C@@H](OC(=O)Nc1ccc(-c2c(C#N)c3cc(OCCCn4ccnc4)ccc3n2C2CCC2)cc1)C1CC1` [Compound 2723]: the melting point was in the range of 182 to 184 °C.

In turn, `C[C@@H](OC(=O)Nc1ccc(-c2c(C#N)c3ccc(Oc4ncccn4)cc3n2C2CCC2)cn1)C(F)(F)F` [Compound 3322] showed a melting point of 227 to 229 °C.

`CC(C)NS(=O)(=O)Nc1ccc(-c2c(C#N)c3ccc(OC4CCOCC4)cc3n2C2CCC2)cc1` [Compound 2786] yielded a melting point of 183 to 185 °C.

On to `CCn1c(-c2ccc(N3CCCS3(=O)=O)cc2)c(C#N)c2ccc(OCCOC)cc21` [Compound 1332], for which the melting point was 213 to 215 °C.

`C[C@@H](OC(=O)Nc1c(F)cc(-c2c(C#N)c3ccc(OCCF)cc3n2C2CCC2)cc1F)C1CC1` [Compound 3040] gave a melting point of 176 to 180 °C.

For `COCCOc1ccc2c(C#N)c(-c3ccc(NC(=O)OC(C)C)cc3)n(C(C)C)c2c1` [Compound 2608], the melting point lay within 153 to 155 °C.

`COCCOc1ccc2c(C#N)c(-c3ccc(NC(=O)OC4CCCC4)cc3)n(C3CCC3)c2c1` [Compound 1400]: the melting point lay in the range of 168 to 169 °C.

For `CCCS(=O)(=O)Nc1ccc(-c2c(C#N)c3ccc(Oc4nccc(C(F)(F)F)n4)cc3n2CC2CC2)c(C)c1` [Compound 2981], the melting point lay in the range of 174 to 177 °C.

`CCc1cnc(Oc2ccc3c(C#N)c(-c4ccc(NC(=O)O[C@H](C)C5CC5)cc4Cl)n(C4CCC4)c3c2)nc1` [Compound 3060]: the melting point was 205 to 212 °C.

`CCNC(=O)Oc1ccc2c(C#N)c(-c3ccc(NC(=O)O[C@H](C)C4CC4)cc3)n(C3CCC3)c2c1` [Compound 3170] showed a melting point of 192 to 194 °C.

`N#Cc1c(-c2ccc(NCC(F)F)cc2)n(C2CCC2)c2ccc(OCC(F)F)cc12` [Compound 3292] yielded a melting point of 159 to 161 °C.

In turn, `N#Cc1c(-c2ccc(Oc3ccccn3)cc2)n(C2CCC2)c2cc(OC3CCOCC3)ccc12` [Compound 3169] displayed a melting point of 147 to 149 °C.

The molecule `CCCS(=O)(=O)Nc1ccc(-c2c(C#N)c3ccc(N4CCCCC4)cc3n2CC2CC2)cc1` [Compound 2963] registered a melting point of 189 to 194 °C.

The molecule `CC(C)OC(=O)Nc1ccc(-c2c(C#N)c3ccc(OC4CCS(=O)(=O)CC4)cc3n2C2CCC2)cc1` [compound 3182, {4-[3-cyano-1-cyclobutyl-6-(1,1-dioxo-hexahydro-1λ^6-thiopyran-4-yloxy)-1H-indol-2-yl]-phenyl}-carbamic acid isopropyl ester] displayed a melting point of 245 to 249 °C.

In turn, `Cc1nccc(Oc2ccc3c(C#N)c(-c4ccc(NC(=O)O[C@H](C)C5CC5)cc4)n(C4CC4)c3c2)n1` [Compound 2715] had a melting point of 123 to 125 °C.

For the molecule `CCOc1ccc2c(C#N)c(-c3ccc(C(=O)NCCc4ccccn4)cc3)n(C3CCC3)c2c1` [Compound 2250], the melting point lay in the range of 194 to 195 °C.

For `CSc1nccc(Oc2ccc3c(C#N)c(-c4ccc(NC(=O)O[C@H](C)C5CC5)cc4)n(C4CCC4)c3c2)n1` [Compound 3089], the melting point was in the range of 172 to 177 °C.

For `CCn1c(-c2ccc(NC(=O)OCCF)cc2)c(C#N)c2ccc(OCCOC)cc21` [Compound 1371], the melting point was in the range of 166 to 168 °C.

`CCc1cnc(Oc2ccc3c(C#N)c(-c4ccc(NC(=O)O[C@H](C)C5CC5)cc4)n(C4CCC4)c3c2)nc1` [Compound 2923] registered a melting point of 158 to 160 °C.

In turn, `COc1ccnc(Oc2ccc3c(C#N)c(-c4ccc(NC(=O)OC(C)C)cc4)n(C4CCC4)c3c2)n1` [Compound 2739] yielded a melting point of 179 to 183 °C.

`CCn1c(-c2ccc(NC(=O)N3CCCC3)cc2)c(C#N)c2ccc(OCCOC)cc21` [Compound 1381] gave a melting point of 151 to 154 °C.

In turn, `CC(C)OC(=O)Nc1ccc(-c2c(C#N)c3ccc(OCCSc4ncccn4)cc3n2C2CCC2)cc1` [Compound 2698] gave a melting point of 69 to 72 °C.

Take `C[C@H](NS(=O)(=O)Nc1ccc(-c2c(C#N)c3ccc(Oc4ncccc4Cl)cc3n2C2CCC2)cc1)C1CC1` [Compound 3017]: the melting point was 120 to 125 °C.

For the molecule `N#Cc1c(-c2ccc(NC(=O)OC(c3ccccc3)C(F)(F)F)cc2)n(C2CCC2)c2cc(Oc3ncccn3)ccc12` (stereo not shown) [Compound 2709], the melting point fell in the range of 246 to 248 °C.

`CCn1ccnc1CCOc1ccc2c(C#N)c(-c3ccc(NC(=O)OC(C)C)cc3)n(C3CCC3)c2c1` [Compound 2842] registered a melting point of 203 to 212 °C.
